Reference: US12091425B2 (AMGEN INC., priority 2016, dated 2024)
Where “and” joins values, the source holds several entries; their conditions need not be identical. Identical values can stand only once. Like-named read-outs stand apart in the source and are kept apart here.

Assays:
[1] = target: T1, Mcl-1/Bim interaction, recombinant human Mcl-1 (171-327) (Homo sapiens, UniProt Q07820); assay: Cell free Mcl-1: Bim Affinity Assay (Mcl-1 HTRF); type: binding
T1 construct: made in house
In short: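 TR-FRET competition assay with biotinylated human Bim peptide (residues 51-76); reaction plates incubated overnight before reading. IC50 values came from duplicate data fitted to a four-parameter sigmoidal competition curve.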

[2] = test system: OPM-2 human multiple myeloma cell line; assay: Cell Viability Assay (OPM-2 10 FBS); type: cell-based; conditions: OPM-2 cells, CellTiter-Glo
In short: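 Plated at 3000 cells/well in 10% FBS complete medium, the cells received a serial compound dilution series and incubated 16 h at 37 °C with 5% CO2. CellTiter-Glo was then added; IC50 values were fitted with a logistic 4-parameter model.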

[3] = TR-FRET, 0.1 nM Mcl-1 (171-327), 0.05 nM biotin-Bim (51-76)
[4] = Homo sapiens, OPM-2, 16 h, 16 h incubation

T1 sequence (Q07820 171-327): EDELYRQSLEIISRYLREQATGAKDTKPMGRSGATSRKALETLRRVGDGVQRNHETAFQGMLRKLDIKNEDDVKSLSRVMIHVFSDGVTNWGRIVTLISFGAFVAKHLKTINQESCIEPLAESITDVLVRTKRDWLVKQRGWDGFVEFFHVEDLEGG

Q: Which ring closure, isolated yield (the molecule shown is the open-chain precursor, rcm bond, 16-membered ring, Hoveyda-Grubbs II (50 mol%), AcOH, 8.6 mM, 60.0 °C) does the source give for C=CC[C@@H](O)[C@H](C)S(=O)(=O)NC(=O)c1ccc2c(c1)N(C[C@@H]1CC[C@H]1[C@@H](O)/C=C/CCC)C[C@@]1(CCCc3cc(Cl)ccc31)CO2 here?
A: 24.5%

Q: With CC(C)(C)[Si](C)(C)OC[C@H]1CC=CC[C@H](O)[C@@H]2CC[C@H]2CN2C[C@@]3(CCCc4cc(Cl)ccc43)COc3ccc(cc32)C(=O)NS1(=O)=O as the compound, how does the ring closure, isolated yield (from C=CC[C@H](CO[Si](C)(C)C(C)(C)C)S(=O)(=O)NC(=O)c1ccc2c(c1)N(C[C@@H]1CC[C@H]1[C@@H](O)CC=C)C[C@@]1(CCCc3cc(Cl)ccc31)CO2, rcm bond, 16-membered ring, Hoveyda-Grubbs II (20 mol%), toluene, 0.72 mM, 106.0 °C, 2.0 h) read?
A: 85.9%

Q: With COCCN1[C@@H](C)CC=C[C@H](O)[C@@H]2CC[C@H]2CN2C[C@@]3(CCCc4cc(Cl)ccc43)COc3ccc(cc32)C(=O)NS1(=O)=O as the compound, how does the ring closure, isolated yield (from C=CC[C@H](C)N(CCOC)S(=O)(=O)NC(=O)c1ccc2c(c1)N(C[C@@H]1CC[C@H]1[C@@H](O)C=C)C[C@@]1(CCCc3cc(Cl)ccc31)CO2, rcm bond, 16-membered ring, Hoveyda-Grubbs II, 1,2-dichloroethane, 2.0 mM, 60.0 °C, 18.0 h) read?
A: 37%

Q: With C[C@@H]1CC/C=C/[C@H](O)[C@]2(C)CC[C@H]2CN2C[C@@]3(CCCc4cc(Cl)ccc43)COc3ccc(cc32)C(=O)NS1(=O)=O as the compound, how does the ring closure, isolated yield (from C=CCC[C@@H](C)S(=O)(=O)NC(=O)c1ccc2c(c1)N(C[C@@H]1CC[C@@]1(C)[C@@H](O)C=C)C[C@@]1(CCCc3cc(Cl)ccc31)CO2, rcm bond, 16-membered ring, Hoveyda-Grubbs II, DCM, 2.0 mM, […]) read?
A: 12.4%

Q: For C[C@@H]1[C@@H](C)C/C=C/[C@@H](O)[C@@H]2CC[C@H]2CN2C[C@@]3(CCCc4cc(Cl)ccc43)COc3ccc(cc32)C(=O)NS1(=O)=O, which ring closure, isolated yield (from C=CC[C@H](C)[C@@H](C)S(=O)(=O)NC(=O)c1ccc2c(c1)N(C[C@@H]1CC[C@H]1[C@H](O)/C=C/CCC)C[C@@]1(CCCc3cc(Cl)ccc31)CO2, rcm bond, 16-membered ring, Hoveyda-Grubbs II (10 mol%), DCE, 1.87 mM, 80.0 °C) is on record?
A: 12.9%

Q: For C[C@@H]1[C@H]2/C=C/[C@H](O)[C@@H]3CC[C@H]3CN3C[C@@]4(CCCc5cc(Cl)ccc54)COc4ccc(cc43)C(=O)NS(=O)(=O)[C@H]1CCC2, which ring closure, isolated yield (from C[C@H]1[C@H](/C=C/[C@H](O)[C@@H]2CC[C@H]2CN2C[C@@]3(CCCc4cc(Cl)ccc43)COc3ccc(C(=O)O)cc32)CCC[C@H]1S(N)(=O)=O, amide bond, 16-membered ring, EDC/DMAP, DCM, 2.0 mM) is on record?
A: 11.6%

Q: Which ring closure, isolated yield (from C=CC[C@H](C)N(CC1CC1)S(=O)(=O)NC(=O)c1ccc2c(c1)N(C[C@@H]1CC[C@H]1[C@@H](O)C=C)C[C@@]1(CCCc3cc(Cl)ccc31)CO2, rcm bond, 16-membered ring, Hoveyda-Grubbs II, 1,2-dichloroethane, 1.5 mM, 50.0 °C, 24.0 h) does the source give for C[C@H]1CC=C[C@H](O)[C@@H]2CC[C@H]2CN2C[C@@]3(CCCc4cc(Cl)ccc43)COc3ccc(cc32)C(=O)NS(=O)(=O)N1CC1CC1 here?
A: 45%

Q: For C[C@]12CC[C@@H]1CN1C[C@@]3(CCCc4cc(Cl)ccc43)COc3ccc(cc31)C(=O)NS(=O)(=O)CC/C=C/C[C@@H]2O, which ring closure, isolated yield (from C=CCCS(=O)(=O)NC(=O)c1ccc2c(c1)N(C[C@@H]1CC[C@@]1(C)[C@@H](O)CC=C)C[C@@]1(CCCc3cc(Cl)ccc31)CO2, rcm bond, 16-membered ring, 1.5 h) is on record?
A: 4.76%

Q: For C[C@]12CC[C@H]1CN1C[C@@]3(CCCc4cc(Cl)ccc43)COc3ccc(cc31)C(=O)NS(=O)(=O)CC/C=C\C[C@@H]2O, which ring closure, isolated yield (from C=CCCS(=O)(=O)NC(=O)c1ccc2c(c1)N(C[C@H]1CC[C@@]1(C)[C@@H](O)CC=C)C[C@@]1(CCCc3cc(Cl)ccc31)CO2, rcm bond, 16-membered ring, Hoveyda-Grubbs II, toluene, 1.0 mM, 1.5 h) is on record?
A: 83%

Q: For O=C1NS(=O)(=O)C2CC(/C=C/[C@H](O)[C@@H]3CC[C@H]3CN3C[C@@]4(CCCc5cc(Cl)ccc54)COc4ccc1cc43)C2, which ring closure, isolated yield (from NS(=O)(=O)C1CC(/C=C/[C@H](O)[C@@H]2CC[C@H]2CN2C[C@@]3(CCCc4cc(Cl)ccc43)COc3ccc(C(=O)O)cc32)C1, amide bond, 16-membered ring, EDC/DMAP, DCM, 2.0 mM) is on record?
A: 3.3% and 22%

Q: With O=C1NS(=O)(=O)NCCC=C[C@H](O)[C@@H]2CC[C@H]2CN2C[C@@]3(CCCc4cc(Cl)ccc43)COc3ccc1cc32 as the compound, how does the ring closure, isolated yield (from C=CCCNS(=O)(=O)NC(=O)c1ccc2c(c1)N(C[C@@H]1CC[C@H]1[C@@H](O)C=C)C[C@@]1(CCCc3cc(Cl)ccc31)CO2, rcm bond, 16-membered ring, Hoveyda-Grubbs II, 1,1-dichloroethane, 1.5 mM, 50.0 °C, 24.0 h) read?
A: 61%

Q: For O=C1NS(=O)(=O)[C@@H]2C[C@H]2C/C=C/[C@H](O)[C@@H]2CC[C@H]2CN2C[C@@]3(CCCc4cc(Cl)ccc43)COc3ccc1cc32, which ring closure, isolated yield (from C=CCC1C[C@H]1S(=O)(=O)NC(=O)c1ccc2c(c1)N(C[C@@H]1CC[C@H]1[C@@H](O)C=C)C[C@@]1(CCCc3cc(Cl)ccc31)CO2, rcm bond, 16-membered ring, Hoveyda-Grubbs II, AcOH, 0.915 mM, 36.0 h) is on record?
A: 55%

Q: With O=C1NS(=O)(=O)C[C@H]2C[C@H]2/C=C/[C@H](O)[C@@H]2CC[C@H]2CN2C[C@@]3(CCCc4cc(Cl)ccc43)COc3ccc1cc32 (mixture of isomers) as the compound, how does the ring closure, isolated yield (from C=C[C@H](O)[C@@H]1CC[C@H]1CN1C[C@@]2(CCCc3cc(Cl)ccc32)COc2ccc(C(=O)NS(=O)(=O)C[C@@H]3C[C@@H]3/C=C/C)cc21, rcm bond, 16-membered ring, Hoveyda-Grubbs II, DCE, 1.99 mM, 60.0 °C, 6.0 h) read?
A: 29%

Q: With CN1CC=CCS(=O)(=O)NC(=O)c2ccc3c(c2)N(C[C@@H]2CC[C@H]2C1=O)C[C@@]1(CCCc2cc(Cl)ccc21)CO3 (single isomer, unassigned) as the compound, how does the ring closure, isolated yield (from C=CCN(C)C(=O)[C@@H]1CC[C@H]1CN1C[C@@]2(CCCc3cc(Cl)ccc32)COc2ccc(C(=O)NS(=O)(=O)CC=C)cc21, rcm bond, 16-membered ring, Hoveyda-Grubbs II, toluene, 1.0 mM, 1.5 h) read?
A: 48%

Q: For COC[C@@]1(C)CC=C[C@H](O)[C@@H]2CC[C@H]2CN2C[C@@]3(CCCc4cc(Cl)ccc43)COc3ccc(cc32)C(=O)NS1(=O)=O (single isomer, unassigned), which ring closure, isolated yield (from COC[C@@](C)(C/C=C/[C@H](O)[C@@H]1CC[C@H]1CN1C[C@@]2(CCCc3cc(Cl)ccc32)COc2ccc(C(=O)O)cc21)S(N)(=O)=O, amide bond, 15-membered ring) is on record?
A: 8.8% and 7.5%

Q: For COc1ccc(CN2CC=CCS(=O)(=O)NC(=O)c3ccc4c(c3)N(C[C@@H]3CC[C@H]3C2=O)C[C@@]2(CCCc3cc(Cl)ccc32)CO4)cc1 (single isomer, unassigned), which ring closure, isolated yield (from C=CCN(Cc1ccc(OC)cc1)C(=O)[C@@H]1CC[C@H]1CN1C[C@@]2(CCCc3cc(Cl)ccc32)COc2ccc(C(=O)NS(=O)(=O)CC=C)cc21, rcm bond, 16-membered ring, Hoveyda-Grubbs II, toluene, 1.0 mM, 110.0 °C, 1.5 h) is on record?
A: 51%

Q: With C[C@H]1CC=CC[C@H](O)[C@@H]2CC[C@H]2CN2C[C@@]3(CCCc4cc(Cl)ccc43)COc3ccc(cc32)C(=O)NS(=O)(=O)[C@H]1C (single isomer, unassigned) as the compound, how does the ring closure, isolated yield (from C=CC[C@H](C)[C@H](C)S(=O)(=O)NC(=O)c1ccc2c(c1)N(C[C@@H]1CC[C@H]1[C@@H](O)CC=C)C[C@@]1(CCCc3cc(Cl)ccc31)CO2, rcm bond, 17-membered ring, Hoveyda-Grubbs II (10 mol%), DCM, 1.6 mM, 45.0 °C) read?
A: 25%

Q: Which ring closure, isolated yield (from C=C[C@H](O)[C@@H]1CC[C@H]1CN1C[C@@]2(CCCc3cc(Cl)ccc32)COc2ccc(C(=O)NS(=O)(=O)CC3CC3/C=C/C)cc21, rcm bond, 16-membered ring, Hoveyda-Grubbs II, DCE, 2.0 mM, 60.0 °C, 6.0 h) does the source give for O=C1NS(=O)(=O)CC2CC2C=C[C@H](O)[C@@H]2CC[C@H]2CN2C[C@@]3(CCCc4cc(Cl)ccc43)COc3ccc1cc32 (single isomer, unassigned) here?
A: 12%

Q: What does the source list for O=C1NS(=O)(=O)C[C@@H](CO)C/C=C/[C@H](O)[C@@H]2CC[C@H]2CN2C[C@@]3(CCCc4cc(Cl)ccc43)COc3ccc1cc32 [Example 1086, (1S,3′R,6′R,7′S,8′E,11′R)-6-chloro-7′-hydroxy-11′-(hydroxymethyl)-3,4-dihydro-2H,15′H-spiro [naphthalene-1,22′-[20]oxa[13]thia[1,14]diazatetracyclo[14.7.2.0^3,6.0^19,24]pentacosa [8,16,18,24]tetraen]-15′-one 13′,13′-dioxide]?
A: IC50 [1, 3]: 0.421 nM; IC50 [2, 4]: 8650 nM

Q: With COC[C@H]1C/C=C/[C@H](O)[C@@H]2CC[C@H]2CN2C[C@@]3(CCCc4cc(Cl)ccc43)COc3ccc(cc32)C(=O)NS(=O)(=O)C1 [Example 1087, (1S,3′R,6′R,7′S,8′E,11′R)-6-chloro-7′-hydroxy-11′-(methoxymethyl)-3,4-dihydro-2H,15′H-spiro [naphthalene-1,22′-[20]oxa[13]thia[1,14]diazatetracyclo[14.7.2.0^3,6.0^19,24]pentacosa [8,16,18,24]tetraen]-15′-one 13′,13′-dioxide] as the compound, how does the IC50 [1, 3] read?
A: 0.493 nM

Q: And the IC50 [2, 4]?
A: 692 nM

Q: With “(1S,3′R,6′R,7′S,11′S,13′R)-6-chloro-13′-methyl-3,4-dihydro-2H,17′H-spiro[naphthalene-1,24′-[8,12,22]trioxa[15]thia[1,16]diazapentacyclo[16.7.2.1^7,11.0^36.0^21,26]octacosa[18,20,26]trien]-17′-one 15′,15′-dioxide [Example 920]” as the compound, how does the IC50 ([1]; cell free Mcl-1:Bim TR-FRET, recombinant human Mcl-1 (171-327)) read?
A: 1.86 nM

Q: What about the IC50 ([2]; 16 h) of the same compound?
A: 4350 nM

Q: Which IC50 [1, 3] does the source give for “(1S,3′R,6′R,9′R)-6-chloro-9′-methyl-3,4-dihydro-2H,15′H-spiro[naphthalene-1,22′-[20]oxa[13]thia[1,14]diazatetracyclo[14.7.2.0^3,6.0^19,24]pentacosa [16,18,24]trien]-15′-one 13′,13′-dioxide and (1S,3′R,6′R,9′S)-6-chloro-9′-methyl-3,4-dihydro-2H,15′H-spiro[naphthalene-[20]oxa[13]thia[1,14]diazatetracyclo[14.7.2.0^3,6.0^19,24]pentacosa [16,18,24]trien]-15′-one 13′,13′-dioxide [Example 276]” here?
A: 13.2 nM

Q: What about the IC50 ([2]; 16 h) of the same compound?
A: 6410 nM
